Assay results taken from ChEMBL document CHEMBL5625248, “Identification of unique indolylcyanoethylenyl sulfonylanilines as novel structural scaffolds of potential antibacterial agents” (Eur J Med Chem, 2023).
Converted amounts (≈) assume the structure as drawn.

Tests used:
Type in all cases: functional
[1] = test system: Escherichia coli; test: Antibacterial activity against Escherichia coli ATCC 25922 assessed as inhibition of bacterial growth incubated for 18 hrs by two fold broth microdilution assay
[2] = test system: Staphylococcus aureus; test: Antibacterial activity against methicilin-resistant Staphylococcus aureus N315 assessed as inhibition of bacterial growth incubated for 18 hrs by two fold broth microdilution assay
[3] = test system: Staphylococcus aureus; test: Antibacterial activity against Staphylococcus aureus ATCC 25923 assessed as inhibition of bacterial growth incubated for 18 hrs by two fold broth microdilution assay
[4] = test system: Pseudomonas aeruginosa; test: Antibacterial activity against Pseudomonas aeruginosa assessed as inhibition of bacterial growth incubated for 18 hrs by two fold broth microdilution assay
[5] = test system: Enterococcus faecalis; test: Antibacterial activity against Enterococcus faecalis assessed as inhibition of bacterial growth incubated for 18 hrs by two fold broth microdilution assay
[6] = test system: Pseudomonas aeruginosa; test: Antibacterial activity against Pseudomonas aeruginosa ATCC 27853 assessed as inhibition of bacterial growth incubated for 18 hrs by two fold broth microdilution assay
[7] = test system: Acinetobacter baumannii; test: Antibacterial activity against Acinetobacter baumannii assessed as inhibition of bacterial growth incubated for 18 hrs by two fold broth microdilution assay
[8] = test system: Escherichia coli; test: Antibacterial activity against Escherichia coli assessed as inhibition of bacterial growth incubated for 18 hrs by two fold broth microdilution assay
[9] = test system: Klebsiella pneumoniae; test: Antibacterial activity against Klebsiella pneumoniae assessed as inhibition of bacterial growth incubated for 18 hrs by two fold broth microdilution assay
[10] = test system: Staphylococcus aureus; test: Antibacterial activity against Staphylococcus aureus assessed as inhibition of bacterial growth incubated for 18 hrs by two fold broth microdilution assay
[11] = test system: Staphylococcus aureus; test: Antibacterial activity against Staphylococcus aureus ATCC 29213 assessed as inhibition of bacterial growth incubated for 18 hrs by two fold broth microdilution assay

Row | SMILES | MIC [1] [µg/mL] | MIC [2] [µg/mL] | MIC [3] [µg/mL] | MIC [4] [µg/mL] | MIC [5] [µg/mL] | MIC [6] [µg/mL] | MIC [7] [µg/mL] | MIC [8] [µg/mL] | MIC [9] [µg/mL] | MIC [10] [µg/mL] | MIC [11] [µg/mL]
1 | N#C/C(=C\c1cn(Cc2ccccc2F)c2ccccc12)S(=O)(=O)c1ccc(N)cc1 | 8 (≈ 18.5 µM) | 64 (≈ 148 µM) | 8 (≈ 18.5 µM) | 64 (≈ 148 µM) | 64 (≈ 148 µM) | 128 (≈ 297 µM) | 256 (≈ 593 µM) | 256 (≈ 593 µM) | 128 (≈ 297 µM) | 256 (≈ 593 µM) | 4 (≈ 9.27 µM)
2 | N#C/C(=C\c1cn(CC2CCCCC2)c2ccccc12)S(=O)(=O)c1ccc(N)cc1 | 2 (≈ 4.77 µM) | 1 (≈ 2.38 µM) | 2 (≈ 4.77 µM) | 4 (≈ 9.53 µM) | 8 (≈ 19.1 µM) | 2 (≈ 4.77 µM) | 32 (≈ 76.3 µM) | 4 (≈ 9.53 µM) | 4 (≈ 9.53 µM) | 16 (≈ 38.1 µM) | 2 (≈ 4.77 µM)
3 | CC(=O)Nc1ccc(S(=O)(=O)/C(C#N)=C/c2cn(Cc3ccc(Cl)c(Cl)c3)c3ccccc23)cc1 | 256 (≈ 488 µM) | 256 (≈ 488 µM) | 32 (≈ 61 µM) | 128 (≈ 244 µM) | 128 (≈ 244 µM) | 16 (≈ 30.5 µM) | 32 (≈ 61 µM) | 128 (≈ 244 µM) | 64 (≈ 122 µM) | 128 (≈ 244 µM) | 4 (≈ 7.63 µM)
4 | CCCCCCCCn1cc(/C=C(\C#N)S(=O)(=O)c2ccc(NC(C)=O)cc2)c2ccccc21 | 32 (≈ 67 µM) | 256 (≈ 536 µM) | 4 (≈ 8.37 µM) | 64 (≈ 134 µM) | 16 (≈ 33.5 µM) | 16 (≈ 33.5 µM) | 8 (≈ 16.7 µM) | 256 (≈ 536 µM) | 4 (≈ 8.37 µM) | 8 (≈ 16.7 µM) | 16 (≈ 33.5 µM)
5 | CC(=O)Nc1ccc(S(=O)(=O)/C(C#N)=C/c2cn(C)c3ccccc23)cc1 | 0.5 (≈ 1.32 µM) | 16 (≈ 42.2 µM) | 8 (≈ 21.1 µM) | 32 (≈ 84.3 µM) | 128 (≈ 337 µM) | 64 (≈ 169 µM) | 0.5 (≈ 1.32 µM) | 16 (≈ 42.2 µM) | 128 (≈ 337 µM) | 128 (≈ 337 µM) | 128 (≈ 337 µM)
6 | C#CCn1cc(/C=C(\C#N)S(=O)(=O)c2ccc(NC(C)=O)cc2)c2ccccc21 | 2 (≈ 4.96 µM) | 2 (≈ 4.96 µM) | 4 (≈ 9.91 µM) | 4 (≈ 9.91 µM) | 4 (≈ 9.91 µM) | 2 (≈ 4.96 µM) | 8 (≈ 19.8 µM) | 8 (≈ 19.8 µM) | 4 (≈ 9.91 µM) | 2 (≈ 4.96 µM) | 8 (≈ 19.8 µM)
7 | N#C/C(=C\c1c[nH]c2cc(Br)ccc12)S(=O)(=O)c1ccc(N)cc1 | 128 (≈ 318 µM) | 128 (≈ 318 µM) | 16 (≈ 39.8 µM) | 32 (≈ 79.5 µM) | 128 (≈ 318 µM) | 32 (≈ 79.5 µM) | 8 (≈ 19.9 µM) | 32 (≈ 79.5 µM) | 16 (≈ 39.8 µM) | 256 (≈ 636 µM) | 32 (≈ 79.5 µM)
8 | N#C/C(=C\c1c[nH]c2cc(F)ccc12)S(=O)(=O)c1ccc(N)cc1 | 8 (≈ 23.4 µM) | 16 (≈ 46.9 µM) | 4 (≈ 11.7 µM) | 4 (≈ 11.7 µM) | 8 (≈ 23.4 µM) | 8 (≈ 23.4 µM) | 8 (≈ 23.4 µM) | 256 (≈ 750 µM) | 64 (≈ 187 µM) | 4 (≈ 11.7 µM) | 128 (≈ 375 µM)
9 | CCn1cc(/C=C(\C#N)S(=O)(=O)c2ccc(N)cc2)c2ccccc21 | 8 (≈ 22.8 µM) | 16 (≈ 45.5 µM) | 64 (≈ 182 µM) | 1 (≈ 2.85 µM) | 8 (≈ 22.8 µM) | 8 (≈ 22.8 µM) | 1 (≈ 2.85 µM) | 8 (≈ 22.8 µM) | 8 (≈ 22.8 µM) | 1 (≈ 2.85 µM) | 1 (≈ 2.85 µM)
10 | CCCCn1cc(/C=C(\C#N)S(=O)(=O)c2ccc(N)cc2)c2ccccc21 | 4 (≈ 10.5 µM) | 256 (≈ 675 µM) | 2 (≈ 5.27 µM) | 2 (≈ 5.27 µM) | 4 (≈ 10.5 µM) | 4 (≈ 10.5 µM) | 256 (≈ 675 µM) | 4 (≈ 10.5 µM) | 1 (≈ 2.64 µM) | 2 (≈ 5.27 µM) | 1 (≈ 2.64 µM)
11 | N#C/C(=C\c1cn(CCN2CCOCC2)c2ccccc12)S(=O)(=O)c1ccc(N)cc1 | 0.5 (≈ 1.15 µM) | 16 (≈ 36.7 µM) | 32 (≈ 73.3 µM) | 64 (≈ 147 µM) | 256 (≈ 586 µM) | 64 (≈ 147 µM) | 64 (≈ 147 µM) | 16 (≈ 36.7 µM) | 128 (≈ 293 µM) | 32 (≈ 73.3 µM) | 64 (≈ 147 µM)
12 | CC(=O)Nc1ccc(S(=O)(=O)/C(C#N)=C/c2c[nH]c3ccc([N+](=O)[O-])cc23)cc1 | 64 (≈ 156 µM) | 64 (≈ 156 µM) | 128 (≈ 312 µM) | 64 (≈ 156 µM) | 32 (≈ 78 µM) | 32 (≈ 78 µM) | 8 (≈ 19.5 µM) | 64 (≈ 156 µM) | 64 (≈ 156 µM) | 32 (≈ 78 µM) | 32 (≈ 78 µM)
13 | CC(=O)Nc1ccc(S(=O)(=O)/C(C#N)=C/c2cn(Cc3ccc(F)cc3F)c3ccccc23)cc1 | 32 (≈ 65.1 µM) | 64 (≈ 130 µM) | 32 (≈ 65.1 µM) | 64 (≈ 130 µM) | 256 (≈ 521 µM) | 64 (≈ 130 µM) | 16 (≈ 32.6 µM) | 128 (≈ 260 µM) | 256 (≈ 521 µM) | 8 (≈ 16.3 µM) | 32 (≈ 65.1 µM)
14 | Cn1cc(/C=C(\C#N)S(=O)(=O)c2ccc(N)cc2)c2ccccc21 | 2 (≈ 5.93 µM) | 128 (≈ 379 µM) | 128 (≈ 379 µM) | 64 (≈ 190 µM) | 256 (≈ 759 µM) | 64 (≈ 190 µM) | 2 (≈ 5.93 µM) | 64 (≈ 190 µM) | 4 (≈ 11.9 µM) | 256 (≈ 759 µM) | 32 (≈ 94.8 µM)
15 | N#C/C(=C\c1cn(Cc2cccc(Cl)c2)c2ccccc12)S(=O)(=O)c1ccc(N)cc1 | 32 (≈ 71.4 µM) | 128 (≈ 286 µM) | 64 (≈ 143 µM) | 64 (≈ 143 µM) | 128 (≈ 286 µM) | 64 (≈ 143 µM) | 32 (≈ 71.4 µM) | 256 (≈ 571 µM) | 256 (≈ 571 µM) | 128 (≈ 286 µM) | 32 (≈ 71.4 µM)
16 | CCCCCCn1cc(/C=C(\C#N)S(=O)(=O)c2ccc(N)cc2)c2ccccc21 | 64 (≈ 157 µM) | 32 (≈ 78.5 µM) | 2 (≈ 4.91 µM) | 8 (≈ 19.6 µM) | 4 (≈ 9.82 µM) | 8 (≈ 19.6 µM) | 8 (≈ 19.6 µM) | 8 (≈ 19.6 µM) | 128 (≈ 314 µM) | 256 (≈ 628 µM) | 4 (≈ 9.82 µM)
17 | CC(=O)Nc1ccc(S(=O)(=O)/C(C#N)=C/c2cn(CCN(C)C)c3ccccc23)cc1 | 64 (≈ 147 µM) | 128 (≈ 293 µM) | 16 (≈ 36.7 µM) | 64 (≈ 147 µM) | 256 (≈ 586 µM) | 16 (≈ 36.7 µM) | 32 (≈ 73.3 µM) | 128 (≈ 293 µM) | 8 (≈ 18.3 µM) | 128 (≈ 293 µM) | 2 (≈ 4.58 µM)
18 | CC(=O)Nc1ccc(S(=O)(=O)/C(C#N)=C/c2cn(CC(=O)OC(C)(C)C)c3ccccc23)cc1 | 256 (≈ 534 µM) | 256 (≈ 534 µM) | 128 (≈ 267 µM) | 128 (≈ 267 µM) | 128 (≈ 267 µM) | 128 (≈ 267 µM) | 128 (≈ 267 µM) | 256 (≈ 534 µM) | 128 (≈ 267 µM) | 128 (≈ 267 µM) | 16 (≈ 33.4 µM)
19 | CC(=O)Nc1ccc(S(=O)(=O)/C(C#N)=C/c2cn(CC(=O)N(C(C)C)C(C)C)c3ccccc23)cc1 | 64 (≈ 126 µM) | 64 (≈ 126 µM) | 32 (≈ 63.2 µM) | 64 (≈ 126 µM) | 64 (≈ 126 µM) | 64 (≈ 126 µM) | 32 (≈ 63.2 µM) | 64 (≈ 126 µM) | 32 (≈ 63.2 µM) | 32 (≈ 63.2 µM) | 64 (≈ 126 µM)
20 | CC(=O)Nc1ccc(S(=O)(=O)/C(C#N)=C/c2c[nH]c3cc(F)ccc23)cc1 | 8 (≈ 20.9 µM) | 64 (≈ 167 µM) | 128 (≈ 334 µM) | 64 (≈ 167 µM) | 32 (≈ 83.5 µM) | 8 (≈ 20.9 µM) | 16 (≈ 41.7 µM) | 128 (≈ 334 µM) | 128 (≈ 334 µM) | 32 (≈ 83.5 µM) | 32 (≈ 83.5 µM)
